Marks after values point to notes of the source that are not given here.
Tests used:
[1] = Tissue concentrations of capecitabine and its metabolites 2 h after oral capecitabine in CES2-modified mice; assay type: in vivo, mouse; conditions: oral capecitabine 500 mg/kg
Experimental: (§1) For capecitabine 2-h experiments, 6–7 female mice received oral capecitabine (500 mg/kg, 10 μL/g), and tail vein blood samples were collected at 0.125, 0.25, 0.5 and 1 h after drug administration. For the vinorelbine 4-h experiment, 6-7 male mice received vinorelbine intravenously (10 mg/kg, 5 μL/g) or orally (10 mg/kg, 10 μL/g) using a blunt-ended needle. Tail vein blood samples were collected at 0.125, 0.25, 0.5, 1 and 2 h after drug administration. […] At the last time point in each experiment (2 or 4 h), mice were anesthetized with 5% isoflurane and blood was collected by cardiac puncture. […] Plasma was isolated from the blood by centrifugation at 9000 × g for 6 min at 4 °C, and the plasma fraction was collected and stored at −30 °C until analysis.
(§2) Concentrations of capecitabine (and its metabolites) and vinorelbine (and its metabolite) in mouse plasma samples and organ homogenates were determined using two independent validated high-performance liquid chromatography-tandem mass spectrometry assays.
(§3) Pharmacokinetic parameters were calculated by non-compartmental methods using the PK solver software. […] Differences were considered statistically significant when P < 0.05. All data are presented as mean ± SD.

[2] = Plasma pharmacokinetics of capecitabine and its metabolites after oral capecitabine in CES2-modified mice; assay type: in vivo, mouse; conditions: oral capecitabine 500 mg/kg, plasma
Experimental: as §1, §2, §3

With `C[C@H]1O[C@@H](n2cc(F)c(=O)[nH]c2=O)[C@H](O)[C@@H]1O` [5’-DFUR] the “CSI (small intestine tissue concentration)” value ([1]; female Ces2^–/– mice) was 5099 ± 1783 ng/g, the “CSIC (small intestine contents concentration)” value (from here on “CSIC”) ([1]; female Ces2^–/– mice) was 3905 ± 2357 ng/g and the “Ccolon (colon concentration)” value ([1]; female Ces2^–/– mice) was 4754 ± 3040 ng/g. For the same compound, the “Cliver (liver concentration)” value ([1]; female Ces2^–/– mice) was 3447 ± 1643 ng/g, the “Colon concentration ratio (metabolite/capecitabine)” value ([1]; female Ces2^–/– mice) was 0.34 ± 0.06 and the “Liver concentration ratio (metabolite/capecitabine)” value ([1]; female Ces2^–/– mice) was 0.21 ± 0.09. The “Small intestine concentration ratio (metabolite/capecitabine)” value ([1]; female Ces2^–/– mice) was 0.32 ± 0.13, the “Small intestine contents concentration ratio (metabolite/capecitabine)” value ([1]; female Ces2^–/– mice) was 0.036 ± 0.016 and the “CSI (small intestine tissue concentration)” value ([1]; female Ces2^–/–A mice) was 4632 ± 1545 ng/g. For the same compound, the “CSIC” value ([1]; female Ces2^–/–A mice) was 2689 ± 1092 ng/g, the “Ccolon (colon concentration)” value ([1]; female Ces2^–/–A mice) was 3692 ± 793 ng/g and the “Cliver (liver concentration)” value ([1]; female Ces2^–/–A mice) was 2628 ± 793 ng/g. For the same compound, the “Colon concentration ratio (metabolite/capecitabine)” value ([1]; female Ces2^–/–A mice) was 0.42 ± 0.06, the “Liver concentration ratio (metabolite/capecitabine)” value ([1]; female Ces2^–/–A mice) was 0.66 ± 0.37 and the “Small intestine concentration ratio (metabolite/capecitabine)” value ([1]; female Ces2^–/–A mice) was 0.33 ± 0.12. For the same compound, the “Small intestine contents concentration ratio (metabolite/capecitabine)” value ([1]; female Ces2^–/–A mice) was 0.035 ± 0.025, the “CSI (small intestine tissue concentration)” value ([1]; female Ces2^–/–V mice) was 3194 ± 1571 ng/g and the “CSIC” value ([1]; female Ces2^–/–V mice) was 2248 ± 905 ng/g. For the same compound, the “Ccolon (colon concentration)” value ([1]; female Ces2^–/–V mice) was 5426 ± 27021.6 ng/g, the “Cliver (liver concentration)” value ([1]; female Ces2^–/–V mice) was 2635 ± 1118 ng/g and the “Colon concentration ratio (metabolite/capecitabine)” value ([1]; female Ces2^–/–V mice) was 1.2 ± 0.5^###^^^. For the same compound, the “Liver concentration ratio (metabolite/capecitabine)” value ([1]; female Ces2^–/–V mice) was 0.44 ± 0.12, the “Small intestine concentration ratio (metabolite/capecitabine)” value ([1]; female Ces2^–/–V mice) was 1.50 ± 0.56^###^^^ and the “Small intestine contents concentration ratio (metabolite/capecitabine)” value ([1]; female Ces2^–/–V mice) was 0.060 ± 0.024. For the same compound, the “CSI (small intestine tissue concentration)” value ([1]; female wild-type mice) was 2119 ± 460 ng/g, the “CSIC” value ([1]; female wild-type mice) was 1759 ± 941 ng/g and the “Ccolon (colon concentration)” value ([1]; female wild-type mice) was 2694 ± 755 ng/g. The “Cliver (liver concentration)” value ([1]; female wild-type mice) was 1750 ± 637 ng/g, the “Colon concentration ratio (metabolite/capecitabine)” value ([1]; female wild-type mice) was 1.2 ± 0.3 and the “Liver concentration ratio (metabolite/capecitabine)” value ([1]; female wild-type mice) was 1.60 ± 0.96. For the same compound, the “Small intestine concentration ratio (metabolite/capecitabine)” value ([1]; female wild-type mice) was 1.50 ± 0.62, the “Small intestine contents concentration ratio (metabolite/capecitabine)” value ([1]; female wild-type mice) was 0.077 ± 0.032 and the AUC0-2h ([2]; female Ces2^–/– mice) was 30434 ± 12950 ng·h/mL. The “AUC0-2h ratio (metabolite/capecitabine)” value ([2]; female Ces2^–/– mice) was 1.0 ± 0.9, the Cmax ([2]; female Ces2^–/– mice) was 22886 ± 11936 ng/mL and the Tmax ([2]; female Ces2^–/– mice) was 38.4 ± 14.4 min. The AUC0-2h ([2]; female Ces2^–/–A mice) was 29452 ± 10370 ng·h/mL, the “AUC0-2h ratio (metabolite/capecitabine)” value ([2]; female Ces2^–/–A mice) was 1.1 ± 0.3 and the Cmax ([2]; female Ces2^–/–A mice) was 21100 ± 8366 ng/mL. For the same compound, the Tmax ([2]; female Ces2^–/–A mice) was 34.8 ± 12 min, the AUC0-2h ([2]; female Ces2^–/–V mice) was 34477 ± 13143 ng·h/mL and the “AUC0-2h ratio (metabolite/capecitabine)” value ([2]; female Ces2^–/–V mice) was 2.1 ± 0.4***^###^^^. It also gave a Cmax ([2]; female Ces2^–/–V mice) of 23871 ± 8673 ng/mL, a Tmax ([2]; female Ces2^–/–V mice) of 47.4 ± 16.2 min and an AUC0-2h ([2]; female wild-type mice) of 27337 ± 6291 ng·h/mL. The “AUC0-2h ratio (metabolite/capecitabine)” value ([2]; female wild-type mice) was 4.7 ± 0.9, the Cmax ([2]; female wild-type mice) was 21133 ± 7207 ng/mL and the Tmax ([2]; female wild-type mice) was 25.2 ± 7.8 min.
